The source made the active and inactive calls.

25 compounds from ChEMBL document CHEMBL5042488, “Synthesis, biological, and structural explorations of a series of μ-opioid receptor (MOR) agonists with high G protein signaling bias” (Eur J Med Chem, 2022) can be followed below.

Series [1] concerns the target T1, Mu-type opioid receptor (Homo sapiens, UniProt P35372). In words: Agonist activity at mu opioid receptor (unknown origin) assessed as maximal cAMP level incubated for 40 mins by spectrophotometry relative to DAMGO. Format: functional. The following applies: filed as agonist.
Series [2] is described as follows: Metabolic stability in human liver microsomes assessed as intrinsic clearance preincubated for 10 mins followed by NADPH addition and measured after 60 mins by LC-MS/MS analysis. The following applies: time 70 min, read-out: CLH. Format: ADME, Microsome.
Series [3] concerns the target T1, Mu-type opioid receptor. In words: Agonist activity at mu opioid receptor (unknown origin) assessed as maximal beta arrestin-2 recruitment incubated for 3 days by PathHunter assay relative to DAMGO. It counts as functional. The following applies: time 3.0 day.
Series [4] deals with T1, Mu-type opioid receptor. In words: Agonist activity at mu opioid receptor (unknown origin) assessed as increase in cAMP level incubated for 40 mins by spectrophotometry. Format: functional.
In series [5] the target is T1, Mu-type opioid receptor. In words: Agonist activity at mu opioid receptor (unknown origin) assessed as beta arrestin-2 recruitment incubated for 3 days by PathHunter assay. It counts as functional.
Series [6] is described as follows: Plasma protein binding in dog plasma assessed as unbound fraction. It counts as ADME, cell-free, Canis lupus familiaris.
Series [7] can be described thus: Metabolic stability in dog liver microsomes assessed as intrinsic clearance preincubated for 10 mins followed by NADPH addition and measured after 60 mins by LC-MS/MS analysis. Format: ADME, Canis lupus familiaris, Microsome. The following applies: time 70 min, read-out: CLH.
Series [8] in a line: Plasma protein binding in rat plasma assessed as unbound fraction. Format: ADME, cell-free.
The nature of series [9]: Apparent permeability across apical to basal membrane in human Caco-2 cells. It counts as ADME, cell-based.
Series [10] is described as follows: Plasma protein binding in human plasma assessed as unbound fraction. Format: ADME, cell-free.
A short description of series [11]: Metabolic stability in rat liver microsomes assessed as intrinsic clearance preincubated for 10 mins followed by NADPH addition and measured after 60 mins by LC-MS/MS analysis. Format: ADME, Microsome. Conditions: time 70 min, read-out: CLH.
A short description of series [12]: Apparent volume of distribution in Sprague-Dawley rat at 2 mg/kg, iv by LC-MS/MS analysis. It counts as ADME, organism-based. The following applies: in vivo, read-out: Vz.
The target in series [13] is Cytochrome P450 2C9 (Homo sapiens, UniProt P11712). In words: Inhibition of CYP2C9 (unknown origin). Format: ADME.
Series [14] addresses Delta-type opioid receptor (Homo sapiens, UniProt P41143). In words: Agonist activity at human delta opioid receptor expressed in HEK293 assessed as increase in calcium mobilization incubated for 60 mins by FLIPR assay. It counts as functional, cell-based.
Series [15] is described as follows: Drug concentration in Sprague-Dawley rat brain at […], iv measured after 5 mins by LC-MS/MS analysis. Format: ADME, organism-based. Conditions: dose 0.25 mg/kg, read-out: Drug uptake.
Series [16] is described as follows: Half life in Sprague-Dawley rat at 2 mg/kg, iv by LC-MS/MS analysis. Format: ADME, organism-based. The following applies: in vivo.
The nature of series [17]: Cmax in Sprague-Dawley rat at 2 mg/kg, iv by LC-MS/MS analysis. It counts as ADME, organism-based. Also noted: route intravenous, dose 2 mg/kg. Conditions: in vivo.
A short description of series [18]: Drug concentration in Sprague-Dawley rat liver at […],iv measured after 30 mins by LC-MS/MS analysis. It counts as ADME, organism-based. Conditions: in vivo, 0.5 h, dose 0.25 mg/kg.
In series [19] the test system is Rattus norvegicus. The experiment in a line: Antinociceptive activity in Sprague-Dawley rat assessed as increase in paw withdrawal latency at 1 mg/kg, sc measured after 30 mins by Hot-plate test. Format: functional, organism-based.
The target in series [20] is Kappa-type opioid receptor (Homo sapiens, UniProt P41145). The experiment in a line: Agonist activity at human kappa opioid receptor expressed in HEK293 assessed as increase in calcium mobilization incubated for 60 mins by FLIPR assay. Format: functional, cell-based.
Series [21] concerns Rattus norvegicus. The experiment in a line: Antinociceptive activity in sc dosed Sprague-Dawley rat assessed as increase in thermal pain threshold measured after 30 mins by Hot-plate test. Format: functional. The following applies: 0.5 h.
In series [22] the target is Cytochrome P450 2C19 (Homo sapiens, UniProt P33261). In words: Inhibition of CYP2C19 (unknown origin). It counts as ADME.
Series [23] can be described thus: Half life of compound. Format: physicochemical.
A short description of series [24]: Toxicity in Sprague-Dawley rat assessed as effect on blood oxygen levels at 1.56 mg/kg, sc measured after 30 mins by blood gas analyzer. It counts as organism-based. Conditions: in vivo, 0.5 h.
Series [25] in a line: MRT in Sprague-Dawley rat at 2 mg/kg, iv by LC-MS/MS analysis. It counts as ADME, organism-based. The following applies: in vivo.

T1 sequence (P35372 whole entry): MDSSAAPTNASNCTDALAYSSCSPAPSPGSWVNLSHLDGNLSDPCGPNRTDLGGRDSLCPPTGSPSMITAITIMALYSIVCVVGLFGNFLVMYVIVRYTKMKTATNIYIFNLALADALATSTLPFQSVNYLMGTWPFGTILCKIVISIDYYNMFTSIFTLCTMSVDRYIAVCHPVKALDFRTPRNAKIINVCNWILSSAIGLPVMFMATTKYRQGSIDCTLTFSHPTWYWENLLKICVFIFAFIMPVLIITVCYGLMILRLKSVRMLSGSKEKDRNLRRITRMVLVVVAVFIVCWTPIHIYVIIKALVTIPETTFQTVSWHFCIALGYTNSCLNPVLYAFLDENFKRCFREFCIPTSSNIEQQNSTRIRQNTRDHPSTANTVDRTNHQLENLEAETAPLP
Delta-type opioid receptor, sequence (P41143 whole entry): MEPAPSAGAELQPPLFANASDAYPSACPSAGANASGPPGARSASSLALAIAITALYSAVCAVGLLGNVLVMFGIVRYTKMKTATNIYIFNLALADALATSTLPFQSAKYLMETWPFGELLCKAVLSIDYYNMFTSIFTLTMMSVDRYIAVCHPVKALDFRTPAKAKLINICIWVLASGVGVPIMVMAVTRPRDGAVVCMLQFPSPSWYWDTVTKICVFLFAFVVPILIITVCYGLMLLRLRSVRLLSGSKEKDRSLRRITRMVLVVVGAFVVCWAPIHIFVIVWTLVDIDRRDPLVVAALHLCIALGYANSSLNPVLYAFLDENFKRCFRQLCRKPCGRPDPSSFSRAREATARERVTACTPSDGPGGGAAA
Cytochrome P450 2C19, sequence (P33261 whole entry): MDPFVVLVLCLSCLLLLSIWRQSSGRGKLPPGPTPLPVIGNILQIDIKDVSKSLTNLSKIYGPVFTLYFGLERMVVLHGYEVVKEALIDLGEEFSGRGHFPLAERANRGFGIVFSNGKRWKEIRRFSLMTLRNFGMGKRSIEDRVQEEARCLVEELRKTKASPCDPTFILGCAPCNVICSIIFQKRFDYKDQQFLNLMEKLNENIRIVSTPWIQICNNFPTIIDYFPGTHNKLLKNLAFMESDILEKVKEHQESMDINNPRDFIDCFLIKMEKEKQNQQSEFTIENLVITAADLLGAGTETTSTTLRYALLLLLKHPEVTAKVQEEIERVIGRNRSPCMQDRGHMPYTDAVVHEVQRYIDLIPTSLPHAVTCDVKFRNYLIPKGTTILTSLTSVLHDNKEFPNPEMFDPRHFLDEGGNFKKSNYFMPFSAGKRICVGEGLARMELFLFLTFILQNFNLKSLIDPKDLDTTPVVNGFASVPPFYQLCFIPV
Kappa-type opioid receptor, sequence (P41145 whole entry): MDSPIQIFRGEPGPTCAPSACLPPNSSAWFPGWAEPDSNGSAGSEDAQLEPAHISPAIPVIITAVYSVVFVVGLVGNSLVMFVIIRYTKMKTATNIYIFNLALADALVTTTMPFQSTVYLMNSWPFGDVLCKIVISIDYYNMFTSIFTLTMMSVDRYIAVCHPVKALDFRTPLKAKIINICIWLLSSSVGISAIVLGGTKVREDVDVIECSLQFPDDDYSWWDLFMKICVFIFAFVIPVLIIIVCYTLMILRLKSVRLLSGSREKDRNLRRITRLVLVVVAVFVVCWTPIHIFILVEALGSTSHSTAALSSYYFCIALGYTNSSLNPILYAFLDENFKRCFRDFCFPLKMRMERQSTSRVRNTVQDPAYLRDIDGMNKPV
Cytochrome P450 2C9, sequence (P11712 whole entry): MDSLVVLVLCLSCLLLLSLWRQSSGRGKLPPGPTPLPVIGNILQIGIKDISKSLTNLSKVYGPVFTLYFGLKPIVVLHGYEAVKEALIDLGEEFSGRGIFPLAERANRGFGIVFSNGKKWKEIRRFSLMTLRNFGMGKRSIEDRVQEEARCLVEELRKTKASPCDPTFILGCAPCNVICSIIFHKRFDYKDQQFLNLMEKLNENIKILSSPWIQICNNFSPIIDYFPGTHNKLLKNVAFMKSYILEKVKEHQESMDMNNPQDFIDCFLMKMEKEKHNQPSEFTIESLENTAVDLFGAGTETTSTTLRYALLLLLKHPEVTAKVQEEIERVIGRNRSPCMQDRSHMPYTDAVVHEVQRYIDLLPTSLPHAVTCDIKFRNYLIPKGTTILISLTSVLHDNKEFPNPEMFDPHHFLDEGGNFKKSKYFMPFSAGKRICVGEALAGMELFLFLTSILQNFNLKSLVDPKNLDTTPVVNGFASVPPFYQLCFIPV

With `Fc1ccc([C@]2(CCNCc3scc4c3CCC4)CCO[C@]3(CCOC3)C2)nc1`, the Emax in series [1] is 95.1%. In addition, the CLint scaled in series [2] is 6.5 L/h/kg.
`c1ccc([C@]2(CCNCc3ccc4ccccc4c3)CCOC3(CCOC3)C2)nc1` (some centres not stated): the Emax was 1.1% in [3] and 124% in [1]. The EC50 in [4] was 174 nM; in series [5], more than 30000 nM.
For `Fc1ccc(CNCC[C@@]2(c3ccccn3)CCOC3(CCOC3)C2)cc1Cl` (some centres not stated), in [1], the Emax was 92.3%. In addition, the EC50 in [4] was 26.5 nM; in series [5], more than 30000 nM.
On to `c1ccc([C@]2(CCNCc3scc4c3CCC4)CCO[C@]3(CCOC3)C2)nc1`, for which, in [1], the maximal effect (Emax) worked out at 96.9%. For the same compound, the fraction unbound was 0.16 in [6], 0.58 in [8] and 0.54 in series [10]. Also, the CLint scaled is 12.2 L/h/kg in series [7], 2.94 L/h/kg in [2] and 39.1 L/h/kg in series [11]. For the same compound, the apparent permeability from apical to basolateral (Papp A→B) in series [9] was 24 nm/s. The concentration giving a half-maximal response (EC50) in [4] is 0.46 nM.
With `FC1(F)CCc2c(csc2CNCC[C@@]2(c3ccccn3)CCOC3(CCOC3)C2)C1` (some centres not stated), the maximal effect (Emax) in [3] (filed as agonist) amounted to 43.1%; in series [1] it was 101%. Further, the half-maximal effective concentration (EC50) in [4] came out at 0.5 nM; in series [5] it was 69 nM.
As for `Cc1ccsc1CNCC[C@@]1(c2ccc(F)cc2)CCOC2(CCOC2)C1` (some centres not stated), the maximal response (Emax) was determined as 2.9% in series [3] and 61.2% in [1]. Further, the EC50 is 4.1 nM in series [4] and more than 30000 nM in series [5].
The corresponding values for `Cc1cc(C)cc(CNCC[C@@]2(c3ccccn3)CCOC3(CCOC3)C2)c1` (some centres not stated) are 4.6%, 96.6%, 11.6 nM and more than 30000 nM.
In the case of `Clc1cccc(CNCC[C@@]2(c3ccccn3)CCOC3(CCOC3)C2)c1` (some centres not stated), the maximal effect (Emax) in series [1] stood at 86.4%. In series [2], the CLint scaled was found to be 1.33 L/h/kg. In addition, the values for the EC50 in [4] and in [5] were 2.6 nM and more than 30000 nM, respectively.
Consider `COc1ccsc1CNCC[C@@]1(c2ccccn2)CCO[C@]2(CCOC2)C1`, for which the maximal response (Emax) in series [3] is 1.2%; in [1] it was 63.7%. For the same compound, in series [2], the CLint scaled is 0.558 L/h/kg. The concentration giving a half-maximal response (EC50) in series [4] is 20 nM; in [5], more than 30000 nM.
On to `Fc1ccc([C@]2(CCNCc3cncc(Cl)c3)CCOC3(CCOC3)C2)cc1` (some centres not stated), for which the Emax in series [1] was found to be 90.8%. Further, the concentration giving a half-maximal response (EC50) was 12.8 nM in series [4] and more than 30000 nM in series [5].
For `FC1(F)Cc2csc(CNCC[C@@]3(c4ccccn4)CCOC4(CCCC4)C3)c2C1`, the maximal response (Emax) came to 9.8% in series [3] and 96.9% in series [1]. Also, the concentration giving a half-maximal response (EC50) in series [4] was 0.1 nM; in series [5], 10 nM.
`FC1(F)CCc2csc(CNCC[C@@]3(c4ccccn4)CCOC4(CCCC4)C3)c2C1`: the maximal effect (Emax) is 54.3% in [3] (filed as agonist) and 92.5% in series [1]. Further, the CLint scaled in series [2] amounted to 96.5 L/h/kg. Besides, the concentration for a half-maximal effect (EC50) in [4] is 1.8 nM; in series [5], 11 nM.
With `c1ccc([C@]2(CCNCc3scc4c3COC4)CCOC3(CCOC3)C2)nc1` (some centres not stated), the Emax in [1] turned out to be 90.4%. Moreover, the half-maximal effective concentration (EC50) in series [4] was 14.1 nM; in series [5], more than 30000 nM.
With `COc1ccsc1CNCC[C@@]1(c2ccccn2)CCO[C@@]2(CCOC2)C1`, the Emax in series [1] came out at 66.3%. The EC50 in [5] is more than 30000 nM.
Regarding `Fc1ccc([C@]2(CCNCc3scc4c3COC4)CCOC3(CCOC3)C2)cc1` (some centres not stated), the CLint scaled in [2] was determined as 11.5 L/h/kg. The EC50 in [4] is 6.8 nM; in [5], more than 30000 nM.
Turning to `Cc1cccc(CNCC[C@@]2(c3ccccn3)CCOC3(CCOC3)C2)c1` (some centres not stated), in series [1], the Emax is 88.9%. The CLint scaled in series [2] was determined as 0.528 L/h/kg. The concentration giving a half-maximal response (EC50) in [4] is 6.1 nM; in series [5], more than 30000 nM.
As to `c1ccc([C@]2(CCNCC3CCCCC3)CCOC3(CCOC3)C2)nc1` (some centres not stated), the Emax in series [1] turned out to be 59.2%. In addition, the EC50 was 61.6 nM in [4] and more than 30000 nM in [5].
Take `COc1ccsc1CNCC[C@@]1(c2ccccn2)CCOC2(CCCC2)C1` [OLICERIDINE]: the Vd in [12] amounted to 6.39 L/kg. For the same compound, the Emax in series [3] stood at 4.6%; in series [1], 92.5%. The IC50 in [13] and in [22] was more than 50000 nM in each case. In addition, the half-maximal effective concentration (EC50) in [14] and in series [20] was more than 10000 nM in each case. In addition, the figures for the fraction unbound in series [6], in series [8] and in series [10] were 0.023, 0.36 and 0.22, respectively. The concentration at 5 min in series [15] came to 64.8 ng/g. For the same compound, the CLint scaled came out at 27.9 L/h/kg in series [7] and 66.8 L/h/kg in series [11]. The values for the half-life in series [16] and in series [23] were 72.6 min and 6.51 min, respectively. The compound further came in with a maximum concentration (Cmax) in [17] of 0.249 µg/mL. In series [18], the Drug uptake came to 23.8%. Besides, the result in [19] was Active. The Papp A→B in series [9] was 44 nm/s. The ED50 in [21] was found to be 0.85 mg/kg. The Activity in series [24] was 87.62%. In series [25], this compound came in with an MRT of 49.2 min.
`C[C@@H](NC(=O)[C@@H](N)Cc1ccc(O)cc1)C(=O)NCC(=O)N(C)[C@@H](Cc1ccccc1)C(=O)NCCO` [DAMGO] returned a half-life in series [23] of 5.95 min.
For `C[C@@H](Cc1ccsc1)NC(=O)NC[C@H](Cc1ccc(O)cc1)N(C)C`, the maximal response (Emax) in series [3] was 5%; in series [1] it was 89.2%. The CLint scaled in [2] is less than 0.516 L/h/kg.
On to `Fc1ccc([C@]2(CCNCc3scc4c3CCCC4)CCO[C@]3(CCOC3)C2)nc1`, for which the Emax in [1] came out at 99.5%. In addition, the CLint scaled in series [2] came out at 20.3 L/h/kg. Also, the half-maximal effective concentration (EC50) in series [4] was 0.2 nM; in series [5] it was more than 30000 nM.
For the compound `Fc1ccc([C@]2(CCNCc3scc4c3CCC4)CCOC3(CCOCC3)C2)nc1`, the maximal response (Emax) in [3] (filed as agonist) and in [1] was 125% each time. The EC50 in series [4] was 178 nM; in series [5], 725 nM.
For the compound `Fc1ccc([C@]2(CCNCc3scc4c3CCC4)CCOC3(CCOC3)C2)cc1` (some centres not stated), in series [2], the CLint scaled is 9.43 L/h/kg. Besides, the concentration for a half-maximal effect (EC50) in series [4] was 0.07 nM; in series [5] it was more than 30000 nM.
Take `c1ccc([C@]2(CCNCc3scc4c3COC4)CCOC3(CCCC3)C2)nc1`: the maximal response (Emax) in series [3] turned out to be 4.4%; in [1], 90.5%. The CLint scaled in [2] was determined as 13.8 L/h/kg. Further, the EC50 in [4] was 2 nM; in series [5] it was 27 nM.
As for `Clc1ccc(CNCC[C@@]2(c3ccccn3)CCOC3(CCOC3)C2)s1` (some centres not stated), the Emax in series [3] was 2.3%; in series [1], 93.3%. Besides, the results for the 50% effective concentration (EC50) in series [4] and in series [5] were 22.3 nM and more than 30000 nM, respectively.
